Legend:
ERαY537S mutant protein = experiment: ELISA of ERα protein in T47D-ERαY537S cells; assay type: cell-based, human; settings: 24 hrs, FIG. 5
Procedure: T47D cells were treated with DMSO, Fulvestrant, Dip G and a Dip G derivative (Dip G-D1, compound 17) for 24 hrs. ERα protein amounts in cell lysate were quantified using ELISA kit (R&D systems) and normalized to standard curve using purified ERα protein. The experiments were performed in triplicate. Data are represented as mean±SD, n=3.
(T47D ERα WT is available from the American Type Culture Collection, Manassas, Va.; accession no. HTB-133. The T47D ERα Y537S cell line is described in Wardell et al 2015) “Efficacy of SERD/SERM Hybrid-CDK4/6 Inhibitor Combinations in Models of Endocrine Therapy-Resistant Breast Cancer,” Clin Cancer Res. 21(22):5121-5130. […] McCormack, P. and Sapunar, F. (2008) “Pharmacokinetic profile of the fulvestrant loading dose regimen in postmenopausal women with hormone receptor-positive advanced breast cancer,” Clinical breast cancer 8:347-351.

CHIP ubiquitin E3 ligase = molecular target: T1, CHIP ubiquitin E3 ligase (Homo sapiens, UniProt Q9UNE7); settings: Zhao et al. 2015; cited from earlier work
T1 sequence (Q9UNE7 1-303): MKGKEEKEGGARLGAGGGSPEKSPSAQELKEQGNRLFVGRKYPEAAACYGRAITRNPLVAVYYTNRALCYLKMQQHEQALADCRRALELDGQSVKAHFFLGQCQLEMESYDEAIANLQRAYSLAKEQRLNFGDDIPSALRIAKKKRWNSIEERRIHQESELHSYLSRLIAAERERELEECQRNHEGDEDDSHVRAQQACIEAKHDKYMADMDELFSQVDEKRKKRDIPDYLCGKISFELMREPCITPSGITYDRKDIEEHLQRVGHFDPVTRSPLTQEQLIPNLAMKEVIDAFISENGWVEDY

[1] = Maximum tolerated dose in mouse models; settings: in vivo, five days out of seven
Procedure: Dip G was synthesized as described and formulated for the in vivo treatment. Dip G was prepared by dissolving the stock powder in 100% DMSO to a final concentration of 50 mg/ml. This stock solution was then diluted 1:5 into a 40% polyethylene glycol (PEG300)/40% normal saline (0.9% NaCl) solution to a final concentration of 20% Dip G solution. […] To determine MTD, escalating doses of Dip G dissolved in the aforementioned formulation were injected retro-orbitally or by oral gavage daily, five days out of seven to determine the MTD. […] (Data not shown.) Dip G was intra-tumorally delivered to ERα-positive T47D xenografted mice three times a week and the tumors were monitored for three weeks. […] (AST ELISAs are available commercially from several suppliers, including Abcam, Cambridge, Mass.)

ERα Y537S = experiment: ERE-Luciferase activity of ERα Y537S in T47D cells; assay type: cell-based, human
Procedure: FIG. 6 is a histogram depicting Dip G- and Dip G-D1-inhibited E2-dependent ERE-Luciferase activities of wildtype ERα or ERα Y537S in T47D cells. Cells were co-treated with 10 nM E2 and Dip G or Dip G-D1 (10 μM) for 24 hrs. The experiments were performed in triplicate. Data are represented as mean±SD, n=3.
See Merenbakh-Lamin, K., Ben-Baruch, N., Yeheskel, A., Dvir, A., Soussan-Gutman, L., Jeselsohn, R., Yelensky, R., Brown, M., Miller, V. A., Sarid, D. et al. (2013) “D538G mutation in estrogen receptor-alpha: A novel mechanism for acquired endocrine resistance in breast cancer,” Cancer research, 73:6856-6864 and Jeselsohn, R., Yelensky, R., Buchwalter, G., Frampton, G., Meric-Bernstam, F., Gonzalez-Angulo, A. M., Ferrer-Lozano, J., Perez-Fidalgo, J. A., Cristofanilli, M., Gomez, H. et al. (2014) “Emergence of constitutively active estrogen receptor-alpha mutations in pretreated advanced estrogen receptor-positive breast cancer,” Clinical cancer research: an official journal of the American Association for Cancer Research, 20:1757-1767. Using these ERα mutant expressing cell lines, we will: (a) compare ERα degradation rate induced by fulvestrant, Dip G and Dip G-D1 using ELISA assay as shown in FIG. 5; (b) measure IC50 of Dip G and Dip G analogues to inhibit ERα transcriptional activity in luciferase assay.

O=C1c2c(O)cc(O)cc2-c2c(-c3ccc(O)cc3)oc3cc(O)cc1c23 [Dip G, diptoindonesin G]
degradation of ERαY537S mutant protein (ERαY537S mutant protein): more effective than 100 nM fulvestrant | target E3 ubiquitin ligase CHIP (STUB1) (CHIP ubiquitin E3 ligase): found to target | MTD ([1]; oral gavage daily): 50 mg/kg | MTD ([1]; other: retro-orbital injection, retro-orbital injection daily): 20 mg/kg | E2-dependent ERE-Luciferase activity of ERα Y537S (ERα Y537S; T47D cells, co-treated with 10 nM E2, 10 μM, 24 hrs): inhibited | ligand-independent transcription activity of ERα Y537S mutant (ERα Y537S; T47D expressing ERα Y537S, preliminary data): can be inhibited
